We go through 17 molecules from patent publication US10280169B2, “Biaryl bruton's tyrosine kinase inhibitors” (BIOGEN MA INC., priority 2013, dated 2019).

One test deals with T1, pBTK (Homo sapiens, UniProt Q06187).
T1 construct: Heparinized venous blood was purchased from Bioreclamation, Inc. or SeraCare Life Sciences; tissue Bioreclamation, Inc. or SeraCare Life Sciences; host or cells: heparinized venous whole blood
As to the kind of experiment: In vitro PD assay in whole blood (pBTK assay). Format: cell-based. As to conditions: 30 min at 37° C. The procedure: Heparinized venous blood was purchased from Bioreclamation, Inc. or SeraCare Life Sciences and shipped overnight. Whole blood was aliquoted into 96-well plate and “spiked” with serial dilutions of test compound in DMSO or with DMSO without drug. The final concentration of DMSO in all wells was 0.1%. The plate was incubated at 37° C. for 30 min. Lysis buffer containing protease and phosphatase inhibitors was added to the drug-containing samples and one of the DMSO-only samples (+PPi, high control), while lysis buffer containing protease inhibitors was added to the other DMSO-only samples (−PPi, low control). All of the lysed whole blood samples were subjected to the total BTK capture and phosphotyrosine detection method described in Example 30. ECL values were graphed in Prism and a best-fit curve with restrictions on the maximum and minimum defined by the +PPi high and −PPi low controls was used to estimate the test compound concentration that results in 50% inhibition of ECL signal by interpolation.
In some instances where a compound tested has activity “D”, other structurally similar compounds beyond the measurable limits of the assay are not included in Table 2.

The target of a further test is T2, BTK (Homo sapiens, UniProt Q06187).
T2 construct: purchased Upstate 14-552
T2 sequence (Q06187 whole entry): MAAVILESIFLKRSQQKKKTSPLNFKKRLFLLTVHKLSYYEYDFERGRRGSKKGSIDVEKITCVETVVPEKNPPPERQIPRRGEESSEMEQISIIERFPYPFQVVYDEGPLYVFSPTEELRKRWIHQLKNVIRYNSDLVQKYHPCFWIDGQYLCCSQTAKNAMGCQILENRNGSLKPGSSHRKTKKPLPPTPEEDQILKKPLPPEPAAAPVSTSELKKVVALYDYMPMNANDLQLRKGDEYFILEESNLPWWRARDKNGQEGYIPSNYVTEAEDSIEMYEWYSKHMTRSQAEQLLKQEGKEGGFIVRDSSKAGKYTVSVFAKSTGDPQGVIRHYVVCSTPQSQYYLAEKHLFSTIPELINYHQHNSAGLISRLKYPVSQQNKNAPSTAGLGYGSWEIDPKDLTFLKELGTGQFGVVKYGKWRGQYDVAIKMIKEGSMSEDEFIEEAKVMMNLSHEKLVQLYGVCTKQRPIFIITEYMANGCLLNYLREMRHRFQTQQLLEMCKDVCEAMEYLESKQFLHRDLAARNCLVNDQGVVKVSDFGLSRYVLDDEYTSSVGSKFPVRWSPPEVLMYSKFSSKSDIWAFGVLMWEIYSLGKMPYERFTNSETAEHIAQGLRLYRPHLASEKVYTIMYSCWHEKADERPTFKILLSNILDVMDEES
Kind of test: In vitro BTK kinase assay: BTK-POLYGAT-LS assay. As to conditions: 10 uM ATP, read-out: IC50 (10 uMATP). Format: biochemical.

T1 sequence (Q06187 whole entry): as above

Usually IC50 stands for the point on the concentration scale where inhibition reaches its midpoint. With `Cc1cc(-c2ncnc3cc(-c4cnn(C)c4)[nH]c23)ccc1C(CO)NC(=O)c1cc2c(s1)CCOC2` (stereo not shown) [Example I-45, N-(2-hydroxy-1-(2-methyl-4-(6-(1-methyl-1H-pyrazol-4-yl)-5H-pyrrolo[3,2-d]pyrimidin-4-yl)phenyl)ethyl)-6,7-dihydro-4H-thieno[3,2-c]pyran-2-carboxamide], the values for the IC50 on pBTK and on BTK were 1500 to 10000 nM and 10 to 99 nM, respectively.
Turning to `Cc1cc(-c2ncnc3cc(-c4cnn(C)c4)[nH]c23)ccc1C(C)NC(=O)c1cnc(C(C)(C)C)s1` (stereo not shown) [Example I-46, 2-(tert-butyl)-N-(1-(2-methyl-4-(6-(1-methyl-1H-pyrazol-4-yl)-5H-pyrrolo[3,2-d]pyrimidin-4-yl)phenyl)ethyl)thiazole-5-carboxamide], the half-maximal inhibitory concentration (IC50) was < 500 nM on pBTK and < 10 nM on BTK.
As for `Cc1cc(-c2ncnc3nc(N4CCN(C)CC4)[nH]c23)ccc1CNC(=O)c1cnc(C(C)(C)C)s1` [Example I-47, 2-(tert-butyl)-N-(2-methyl-4-(8-(4-methylpiperazin-1-yl)-7H-purin-6-yl)benzyl)thiazole-5-carboxamide], the results for the IC50 at pBTK and on BTK were < 500 nM and < 10 nM, respectively.
Take `Cc1cc(-c2ncnc3nc(N4CCOCC4)[nH]c23)ccc1CNC(=O)c1cnc(C(C)(C)C)s1` [Example I-48, 2-(tert-butyl)-N-(2-methyl-4-(8-morpholino-7H-purin-6-yl)benzyl)thiazole-5-carboxamide]: the half-inhibitory concentration (IC50) was < 500 nM at pBTK and < 10 nM on BTK.
As to `Cc1cc(-c2ncnc3nc(N4CCC(N(C)C)CC4)[nH]c23)ccc1CNC(=O)c1cnc(C(C)(C)C)s1` [Example I-49, 2-(tert-butyl)-N-(4-(8-(4-(dimethylamino)piperidin-1-yl)-7H-purin-6-yl)-2-methylbenzyl)thiazole-5-carboxamide], the figures for the 50% inhibitory concentration (IC50) against pBTK and on BTK were 500 to 1500 nM and < 10 nM, respectively.
Consider `Cc1cc(-c2ncnc3nc(N4CCC(C(=O)O)CC4)[nH]c23)ccc1CNC(=O)c1cnc(C(C)(C)C)s1` [Example I-52, 1-(6-(4-((2-(tert-butyl)thiazole-5-carboxamido)methyl)-3-methylphenyl)-7H-purin-8-yl)piperidine-4-carboxylic acid], for which the half-inhibitory concentration (IC50) was < 500 nM on pBTK and < 10 nM on BTK.
The like results for `Cc1cc(-c2ncnc3[nH]ccc23)ccc1C(C)NC(=O)c1cc2c(s1)CCCC2` (stereo not shown) [Example I-78, N-(1-(2-methyl-4-(7H-pyrrolo[2,3-d]pyrimidin-4-yl)phenyl)ethyl)-4,5,6,7-tetrahydrobenzo[b]thiophene-2-carboxamide] were, in that order, 1500 to 10000 nM and < 10 nM.
As to `Cc1cc(-c2ncnc3[nH]ncc23)ccc1CNC(=O)c1cc2c(s1)CCCC2` [Example I-85, N-(2-methyl-4-(1H-pyrazolo[3,4-d]pyrimidin-4-yl)benzyl)-4,5,6,7-tetrahydrobenzo[b]thiophene-2-carboxamide], the results for the 50% inhibitory concentration (IC50) on pBTK and on BTK were 1500 to 10000 nM and < 10 nM, respectively.
Regarding `O=C(N[C@H]1CCCc2cc(-c3ncnc4[nH]ncc34)ccc21)c1cc2c(s1)CCCC2` [Example I-87, (S)—N-(6-(1H-Pyrazolo[3,4-d]pyrimidin-4-yl)-1,2,3,4-tetrahydronaphthalen-1-yl)-4,5,6,7-tetrahydrobenzo[b]thiophene-2-carboxamide], the IC50 against pBTK is 1500 to 10000 nM; at BTK, < 10 nM.
Turning to `O=C(N[C@H]1CCCc2cc(-c3ncnc4[nH]ccc34)ccc21)c1cc2c(s1)CCCC2` [Example I-89, (S)—N-(6-(7H-Pyrrolo[2,3-d]pyrimidin-4-yl)-1,2,3,4-tetrahydronaphthalen-1-yl)-4,5,6,7-tetrahydrobenzo[b]thiophene-2-carboxamide], the values for the IC50 on pBTK and at BTK were 1500 to 10000 nM and < 10 nM, respectively.
Take `CC(C)(C)c1csc(C(=O)NC2CCCc3cc(-c4ncnc5[nH]ncc45)ccc32)n1` (stereo not shown) [Example I-98, N-(6-(1H-pyrazolo[3,4-d]pyrimidin-4-yl)-1,2,3,4-tetrahydronaphthalen-1-yl)-4-(tert-butyl) thiazole-2-carboxamide]: the IC50 was > 10000 nM at pBTK and < 10 nM at BTK.
In the case of `Cc1cc(-c2ncnc3[nH]c(-c4cnn(C)c4)cc23)ccc1C(C)NC(=O)c1cnc(C(C)(C)C)s1` (stereo not shown) [Example I-112, 2-(tert-butyl)-N-(1-(2-methyl-4-(6-(1-methyl-1H-pyrazol-4-yl)-7H-pyrrolo[2,3-d]pyrimidin-4-yl)phenyl)ethyl)thiazole-5-carboxamide], the IC50 was < 500 nM on pBTK and < 10 nM at BTK.
With `Cc1cc(-c2ncnc3[nH]c(-c4cnn(C)c4)cc23)ccc1C(C)NC(=O)c1cc2c(s1)CCOC2` (stereo not shown) [Example I-113, N-(1-(2-methyl-4-(6-(1-methyl-1H-pyrazol-4-yl)-7H-pyrrolo[2,3-d]pyrimidin-4-yl)phenyl)ethyl)-6,7-dihydro-4H-thieno[3,2-c]pyran-2-carboxamide], the IC50 was 1500 to 10000 nM against pBTK and < 10 nM on BTK.
Consider `Cc1cc(-c2ncnc3cc[nH]c23)ccc1CNC(=O)c1cnc(C(C)(C)C)s1` [Example I-115, 2-(tert-butyl)-N-(2-methyl-4-(5H-pyrrolo[3,2-d]pyrimidin-4-yl)benzyl)thiazole-5-carboxamide], for which the values for the IC50 at pBTK and on BTK were 500 to 1500 nM and < 10 nM, respectively.
In the same order, the values of `Cc1cc(-c2ncnc3cc[nH]c23)ccc1CNC(=O)c1cc2c(s1)CCCC2` [Example I-116, N-(2-methyl-4-(5H-pyrrolo[3,2-d]pyrimidin-4-yl)benzyl)-4,5,6,7-tetrahydrobenzo[b]thiophene-2-carboxamide] are 1500 to 10000 nM and < 10 nM.
As to `Cc1cc(-c2ncnc3[nH]ncc23)ccc1CNC(=O)c1nc2c(s1)CCCC2` [Example I-119, 4,5,6,7-Tetrahydro-benzothiazole-2-carboxylic acid 2-methyl-4-(1H-pyrazolo[3,4-d]pyrimidin-4-yl)-benzylamide], the IC50 on pBTK was 1500 to 10000 nM; on BTK, < 10 nM.
For the molecule `O=C(NCc1ccc(-c2ncnc3[nH]ccc23)cc1C(F)(F)F)c1nc2c(s1)CCCC2` [Example I-122, N-(4-(7H-pyrrolo[2,3-d]pyrimidin-4-yl)-2-(trifluoromethyl)benzyl)-4,5,6,7-tetrahydrobenzo[d]thiazole-2-carboxamide], the IC50 was in the range of 1500 to 10000 nM against pBTK and 10 to 99 nM at BTK.
